In US12544382B2, “2, 4, 6-tri-substituted pyrimidine compound as ATR kinase inhibitor” (BEIJING TIDE PHARMACEUTICAL CO., LTD., priority 2019, dated 2026):

What was measured:
[1] = system: TOV21G (ovarian cancer) cells; experiment: In vitro cell proliferation inhibition assay (CellTiter-Glo), TOV21G; type: cell-based, human; conditions: 120 hours
Description: (§1) By detecting the effect of compound on cell activity in vitro in the tumor cell lines TOV21G (ovarian cancer) and MV4-11 (leukemia), the effect of compound inhibiting cell proliferation was studied in this assay.
(§2) TOV21G cells and MV4-11 cells were purchased from American Type Culture Collection (ATCC).
TOV21G cells were cultured in MCDB105/M199 medium (containing 15% […]), and used for testing when the cell confluence reaches 85% or more. Each well of a 96-well culture plate was inoculated with about 1000 cells, cultured for 24 hours, and treated with different concentrations (0-10 μM) of compound solution to be tested in triplex. Blank wells (contains medium only) and control wells (seeded cells was not treated with drug) were set. Cells were cultured for 120 hours, 40 μL Cell Titer-Glo solution (Promega, #G7573) were added to each well, incubated with shaking for 20 min in the dark, 100 μL solution was transferred from each well to a 96-well white plate (Corning, #3917), and the luminescence value was read by Biotek Synergy H1 multifunctional microplate reader.

MV4-11 (leukemia) cells = experiment: In vitro cell proliferation inhibition assay (CellTiter-Glo), MV4-11; type: cell-based, human; conditions: MV4-11 cells
Description: as §1, §2
MV-4-11 cells were cultured in IMDM medium (containing 20% FBS), each well of a 96-well culture plate was inoculated with about 10000 cells, and treated with different concentrations (0-10 μM) of compounds to be tested in triplex. Blank wells (containing medium only) and control wells (inoculated with cells but not treated with drug) were set. Cells were cultured for 120 hours, 40 μL Cell Titer-Glo solution was added to each well, incubated with shaking for 20 min in the dark, 100 μL solution was transferred from each well to a 96-well white plate, and the luminescence value was read by Biotek Synergy H1 multifunctional microplate reader. Inhibition rate (%)=100%×(control well−test well)/(control well−blank well)

ATR kinase = ATR kinase (Homo sapiens (Human), UniProt Q13535); experiment: ATR kinase activity assay (time-resolved fluorescence, p53 substrate phosphorylation); type: biochemical
Chain of ATR kinase (Q13535 whole entry): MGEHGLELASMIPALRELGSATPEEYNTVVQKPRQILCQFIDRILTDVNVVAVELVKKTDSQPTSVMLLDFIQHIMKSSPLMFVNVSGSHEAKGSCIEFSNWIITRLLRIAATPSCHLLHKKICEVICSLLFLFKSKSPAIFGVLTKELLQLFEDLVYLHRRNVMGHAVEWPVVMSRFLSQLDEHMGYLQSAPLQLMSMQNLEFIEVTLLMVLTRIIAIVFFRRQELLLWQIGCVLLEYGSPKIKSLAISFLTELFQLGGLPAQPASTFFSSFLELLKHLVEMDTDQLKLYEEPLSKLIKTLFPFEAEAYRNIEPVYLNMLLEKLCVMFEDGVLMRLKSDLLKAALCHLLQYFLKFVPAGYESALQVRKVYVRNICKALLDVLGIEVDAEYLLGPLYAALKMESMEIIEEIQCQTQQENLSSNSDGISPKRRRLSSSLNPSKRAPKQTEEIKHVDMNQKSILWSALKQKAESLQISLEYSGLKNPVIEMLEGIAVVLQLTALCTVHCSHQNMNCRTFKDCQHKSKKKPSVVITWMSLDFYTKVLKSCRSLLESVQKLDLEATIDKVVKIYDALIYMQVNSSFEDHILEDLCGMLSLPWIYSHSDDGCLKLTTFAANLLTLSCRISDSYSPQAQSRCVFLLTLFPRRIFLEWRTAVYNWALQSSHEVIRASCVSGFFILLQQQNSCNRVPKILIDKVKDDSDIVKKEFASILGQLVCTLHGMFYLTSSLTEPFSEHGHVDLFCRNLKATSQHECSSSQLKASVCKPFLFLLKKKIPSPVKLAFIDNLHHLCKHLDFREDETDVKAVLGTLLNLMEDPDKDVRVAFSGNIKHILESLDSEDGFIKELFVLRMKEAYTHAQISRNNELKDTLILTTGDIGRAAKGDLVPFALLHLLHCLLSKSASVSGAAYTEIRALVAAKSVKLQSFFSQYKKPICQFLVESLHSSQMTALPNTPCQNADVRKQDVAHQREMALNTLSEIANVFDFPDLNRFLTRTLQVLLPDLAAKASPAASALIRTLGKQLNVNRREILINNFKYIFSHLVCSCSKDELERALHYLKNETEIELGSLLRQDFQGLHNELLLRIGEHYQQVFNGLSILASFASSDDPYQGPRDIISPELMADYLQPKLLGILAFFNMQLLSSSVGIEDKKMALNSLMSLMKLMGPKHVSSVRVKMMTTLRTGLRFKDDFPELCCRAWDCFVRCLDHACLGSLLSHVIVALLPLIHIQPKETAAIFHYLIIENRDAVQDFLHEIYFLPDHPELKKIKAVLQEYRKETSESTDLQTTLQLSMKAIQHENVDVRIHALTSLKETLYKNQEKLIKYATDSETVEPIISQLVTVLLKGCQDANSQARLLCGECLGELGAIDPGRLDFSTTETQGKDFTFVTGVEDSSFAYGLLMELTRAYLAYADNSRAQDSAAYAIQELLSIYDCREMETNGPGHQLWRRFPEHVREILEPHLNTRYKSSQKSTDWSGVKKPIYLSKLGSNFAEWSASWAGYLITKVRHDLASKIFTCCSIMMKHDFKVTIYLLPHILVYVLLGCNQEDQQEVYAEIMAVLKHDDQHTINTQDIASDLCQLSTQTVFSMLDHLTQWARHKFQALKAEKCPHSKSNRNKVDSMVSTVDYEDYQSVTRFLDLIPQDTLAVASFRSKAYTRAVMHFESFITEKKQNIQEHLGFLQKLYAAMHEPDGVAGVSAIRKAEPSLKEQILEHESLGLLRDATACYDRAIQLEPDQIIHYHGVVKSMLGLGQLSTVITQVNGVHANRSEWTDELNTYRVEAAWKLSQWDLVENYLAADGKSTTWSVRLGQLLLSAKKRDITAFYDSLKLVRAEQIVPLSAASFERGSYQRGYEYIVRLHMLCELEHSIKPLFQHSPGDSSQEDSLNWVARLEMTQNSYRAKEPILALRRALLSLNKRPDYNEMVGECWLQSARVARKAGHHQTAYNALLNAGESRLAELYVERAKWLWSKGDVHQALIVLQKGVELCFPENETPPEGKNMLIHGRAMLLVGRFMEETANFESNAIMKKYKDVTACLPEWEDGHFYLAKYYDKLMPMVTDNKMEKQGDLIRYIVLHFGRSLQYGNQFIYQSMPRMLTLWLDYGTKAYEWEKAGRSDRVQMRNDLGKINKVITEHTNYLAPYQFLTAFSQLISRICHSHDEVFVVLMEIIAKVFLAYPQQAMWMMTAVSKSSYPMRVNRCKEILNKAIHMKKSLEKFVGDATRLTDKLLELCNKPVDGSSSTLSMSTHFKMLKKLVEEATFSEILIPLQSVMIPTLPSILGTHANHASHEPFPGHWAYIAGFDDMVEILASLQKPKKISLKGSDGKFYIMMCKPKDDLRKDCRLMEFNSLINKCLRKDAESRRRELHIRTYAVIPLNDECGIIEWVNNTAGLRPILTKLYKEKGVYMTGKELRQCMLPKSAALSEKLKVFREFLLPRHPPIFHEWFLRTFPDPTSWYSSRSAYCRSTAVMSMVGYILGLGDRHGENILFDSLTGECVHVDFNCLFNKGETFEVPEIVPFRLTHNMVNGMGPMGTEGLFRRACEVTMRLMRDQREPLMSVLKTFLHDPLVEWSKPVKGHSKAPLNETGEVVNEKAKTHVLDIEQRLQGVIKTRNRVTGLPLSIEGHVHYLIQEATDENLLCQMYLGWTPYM
Chain of ATR kinase (Q8WXE1 whole entry partner): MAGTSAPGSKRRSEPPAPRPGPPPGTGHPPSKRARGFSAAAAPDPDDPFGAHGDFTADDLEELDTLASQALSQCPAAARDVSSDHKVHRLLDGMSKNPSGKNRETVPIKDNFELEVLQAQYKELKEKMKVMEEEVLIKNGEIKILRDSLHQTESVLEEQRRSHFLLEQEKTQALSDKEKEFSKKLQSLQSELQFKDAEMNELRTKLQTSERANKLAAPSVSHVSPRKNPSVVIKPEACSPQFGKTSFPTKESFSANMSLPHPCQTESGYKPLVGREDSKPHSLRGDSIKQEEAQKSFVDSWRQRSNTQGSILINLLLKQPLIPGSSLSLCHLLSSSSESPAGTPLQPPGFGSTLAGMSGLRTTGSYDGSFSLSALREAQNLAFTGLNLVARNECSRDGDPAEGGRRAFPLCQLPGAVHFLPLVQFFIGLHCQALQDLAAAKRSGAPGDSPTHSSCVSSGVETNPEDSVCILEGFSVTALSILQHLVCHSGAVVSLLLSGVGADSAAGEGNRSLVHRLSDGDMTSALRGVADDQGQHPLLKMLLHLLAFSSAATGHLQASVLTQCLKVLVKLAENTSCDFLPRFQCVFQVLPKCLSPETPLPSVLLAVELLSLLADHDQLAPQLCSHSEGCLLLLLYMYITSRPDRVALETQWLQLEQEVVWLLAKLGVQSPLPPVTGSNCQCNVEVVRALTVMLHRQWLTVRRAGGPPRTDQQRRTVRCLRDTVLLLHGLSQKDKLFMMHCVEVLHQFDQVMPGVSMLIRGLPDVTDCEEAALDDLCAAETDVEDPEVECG
Description: Biotinylated protein derived from p53 (Eurofins, art. No.: 14-952) was phosphorylated with ATR kinase. The amount of phosphorylated protein was determined by time-resolved fluorescence in this assay. The amount of phosphorylated protein was detected by anti-p53-phospho-(serine 15)-K-specific antibody (Cisbio, art. No.: 61GSTDLA) and d2 labeled anti-GST antibody (Cisbio, art. No. 61P08KAE). Before the experiment, the following working solution was prepared as required: 1× reaction buffer (20 mM HEPES PH8.0, 1% glycerol, 0.01% Brij-35), dilution buffer (20 mM HEPES PH8.0, 1% glycerol, 0.01% Brij-35, 5 mM DTT and 1% BSA), stop solution (20 mM HEPES PH8.0, 1% glycerol, 0.01% Brij-35, 250 mM EDTA), detection buffer (50 mM HEPES pH7.0, 150 mM NaCl, 267 mM KF, 0.1% sodium cholate, 0.01% Tween-20, 0.0125% sodium azide). The reagents used above are purchased from Sigma or Invitrogen, except for those where the manufacturer was mentioned.
Operations are as follows:
4× gradient dilution of compound solutions was prepared with 1× reaction buffer to obtain 9 compound solutions of different concentrations, and 2.5 μL 4× gradient dilution of compound solutions was added to a 384-well analysis plate (784075, Greiner). 4× p53 substrate working solution (40 nM) was prepared with 1× reaction buffer, and 2.5 μL 4× p53 substrate working solution was added to the 384-well analysis plate. 4×ATR/ATRIP working solution (12.8 ng/μL) was prepared with dilution buffer, and 2.5 μL 4×pATR/ATRIP working solution was added to the 384-well analysis plate. 4×ATP working solution (2 mM) was prepared with deionized water, 2.5 μL 4×ATP working solution was added to the 384-well analysis plate, and incubated at room temperature in dark for 30 minutes. 5 μL stop solution was added to the 384 analysis plate. Finally, 5 μL test mixture (0.084 ng/μL Anti-phospho-p53(ser15)-K and 5 ng/μL Anti-GST-d2) was added to the 384 well analysis plate, incubated overnight at room temperature, and the fluorescence signal was detected with ENVISION (Perkinelmer) instrument (excitation wavelength: 320 nm, emission wavelength: 665 nm and 615 nm). The inhibition rate in each well was calculated by the fluorescence intensity value of each hole: ER (Emission Ratio)=(Fluorescence intensity at 665 nm/Fluorescence intensity at 615 nm); inhibition rate=(ER positive-ER test compound)/(ER positive-ER negative)×100%, the IC50 value of compounds were calculated by standard parameter fitting software (GraphPad Prism 6.0).

| Structure (SMILES) | IC50 ([1]; Homo sapiens) [nM] | IC50 (MV4-11 (leukemia) cells; Homo sapiens, MV4-11, 120 h) [nM] | IC50 (ATR kinase) [nM] | IC50 [1] [nM] | IC50 (MV4-11 (leukemia) cells; 120 hours) [nM] |
| --- | --- | --- | --- | --- | --- |
| Cc1c(-c2cc(N3CCOC[C@H]3C)nc(-c3ccnc4[nH]ccc34)n2)c(C(F)(F)F)nn1C1CCCNC1 (single isomer, unassigned) [Compound D13] | 800 | 250 | < 1 | – | – |
| Cc1c(-c2cc(N3CCOC[C@H]3C)nc(-c3ccnc4[nH]ccc34)n2)c(C(F)(F)F)nn1C1CCNCC1 [Compound D2] | 920 | 780 | 6 | – | – |
| COc1cc(-c2nc(-c3c(C)nn(C4CCNCC4)c3C(F)(F)F)cc(N3CCOC[C@H]3C)n2)c2cc[nH]c2n1 [Compound D3] | – | – | 31 | 280 | 290 |
| Cc1nn(C2CCN(C)CC2)c(C)c1-c1cc(N2CCOC[C@H]2C)nc(-c2ccnc3[nH]ccc23)n1 [Compound D4] | – | – | 6 | 330 | 190 |
| Cc1nn(C2CCNCC2)c(C(F)(F)F)c1-c1cc(N2CCOC[C@H]2C)nc(-n2c(N)nc3ccccc32)n1 [Compound D6] | 240 | 170 | < 1 | – | – |
| Cc1nn(C2CCNCC2)c(C(F)(F)F)c1-c1cc(N2CCOC[C@H]2C)nc(-n2c(N)nc3cc(F)ccc32)n1 [Compound D7] | 460 | 310 | 1 | – | – |
| CC(=O)Nc1nc2ccccc2n1-c1nc(-c2c(C)nn(C3CCNCC3)c2C(F)(F)F)cc(N2CCOC[C@H]2C)n1 [Compound D8] | 430 | 220 | 3 | – | – |
| CNc1nc2cc(F)ccc2n1-c1nc(-c2c(C)nn(C3CCNCC3)c2C(F)(F)F)cc(N2CCOC[C@H]2C)n1 [Compound D10] | 380 | 330 | 3 | – | – |
| Cc1nn(C2CCNCC2)c(C(F)(F)F)c1-c1nc(-c2ccnc3[nH]ccc23)nc(N2CCOC[C@H]2C)c1F [Compound D11] | – | – | 8 | 640 | 370 |
| Cc1c(-c2cc(N3CCOC[C@H]3C)nc(-c3ccnc4[nH]ccc34)n2)c(C(F)(F)F)nn1C1CCCNC1 (some centres unmarked) [Compound D12] | 280 | 290 | 3 | – | – |
| COc1c(-c2cc(N3CCOC[C@H]3C)nc(-c3ccnc4[nH]ccc34)n2)c(C(F)(F)F)nn1C1CCN(C)CC1 [Compound D14] | 1200 | 810 | 28 | – | – |
| CNc1nc2cc(F)ccc2n1-c1nc(-c2c(C(F)(F)F)nn(C3CCNCC3)c2C)cc(N2CCOC[C@H]2C)n1 [Compound D16] | – | – | 82 | 1050 | 1360 |
| Cc1c(-c2cc(N3CCOC[C@H]3C)nc(-c3cccc4[nH]ccc34)n2)c(C(F)(F)F)nn1C1CCNCC1 [Compound D18] | 510 | 280 | < 1 | – | – |
| Cc1nn(C2CCNCC2)c(C(F)(F)F)c1-c1cc(N2CCOC[C@H]2C)nc(-c2cncc3[nH]ccc23)n1 [Compound D19] | 110 | 80 | 1 | – | – |
| Cc1c(-c2cc(N3CCOC[C@H]3C)nc(-c3cncc4[nH]ccc34)n2)c(C(F)(F)F)nn1C1CCNCC1 [Compound D20] | 160 | 70 | < 1 | – | – |
| Cc1nn(C2CCNCC2)c(C(F)(F)F)c1-c1cc(N2CCOC[C@H]2C)nc(-n2c(NC(=O)C3CC3)nc3ccccc32)n1 [Compound D21] | 140 | 190 | 2 | – | – |
| CNc1nc2ccc(F)cc2n1-c1nc(-c2c(C)nn(C3CCNCC3)c2C(F)(F)F)cc(N2CCOC[C@H]2C)n1 [Compound D22] | 850 | 920 | 16 | – | – |

| Structure (SMILES) | IC50 ([1]; Homo sapiens) [nM] | IC50 (MV4-11 (leukemia) cells; Homo sapiens, MV4-11, 120 h) [nM] | IC50 (ATR kinase) [nM] | IC50 [1] [nM] | IC50 (MV4-11 (leukemia) cells; 120 hours) [nM] |
| --- | --- | --- | --- | --- | --- |
| CCNc1nc2cc(F)ccc2n1-c1nc(-c2c(C)nn(C3CCNCC3)c2C(F)(F)F)cc(N2CCOC[C@H]2C)n1 [Compound D23] | – | – | 8 | 580 | 690 |
| CNc1nc2cc(Cl)ccc2n1-c1nc(-c2c(C)nn(C3CCNCC3)c2C(F)(F)F)cc(N2CCOC[C@H]2C)n1 [Compound D25] | 1030 | 990 | – | – | – |
| CNc1nc2ncccc2n1-c1nc(-c2c(C)nn(C3CCNCC3)c2C(F)(F)F)cc(N2CCOC[C@H]2C)n1 [Compound D26] | – | – | 12 | 3580 | 3090 |
| CNc1nc2cc(F)ccc2n1-c1nc(-c2c(C)nn(C3CCNCC3)c2C(F)(F)F)c(F)c(N2CCOC[C@H]2C)n1 [Compound D27] | – | – | 8 | 720 | 970 |
| Cc1nn(C2CCNCC2)c(C(F)(F)F)c1-c1cc(N2CCOC[C@H]2C)nc(-n2cnc3cc(F)ccc32)n1 [Compound D30a] | – | – | 16 | 2090 | 410 |
| Cc1nn(C2CCNCC2)c(C(F)(F)F)c1-c1cc(N2CCOC[C@H]2C)nc(-n2cnc3ccc(F)cc32)n1 [Compound D30b] | – | – | 54 | 2220 | 330 |
| CNc1nc2cc(F)ccc2n1-c1nc(-c2c(C(F)(F)F)nn(C3CCCNC3)c2C)cc(N2CCOC[C@H]2C)n1 (some centres unmarked) [Compound D33] | – | – | 13 | 1450 | 1310 |
| Cc1nn(C2CCNCC2)c(C(F)(F)F)c1-c1cc(N2CCOC[C@H]2C)nc(-n2c(NC(=O)C3CC3)nc3ccccc32)n1 [Compound D38] | – | – | 5 | 140 | 230 |
| CNc1nc2cc(F)ccc2n1-c1nc(-c2c(C)nn(CC3CCCNC3)c2C(F)(F)F)cc(N2CCOC[C@H]2C)n1 (some centres unmarked) [Compound D39] | 860 | 1230 | 3 | – | – |
| CNc1nc2ccccc2n1-c1nc(-c2c(C)nn(CC3CCCNC3)c2C(F)(F)F)cc(N2CCOC[C@H]2C)n1 (some centres unmarked) [Compound D40] | 720 | 580 | 5 | – | – |
| CNc1nc2cc(F)ccc2n1-c1nc(-c2c(C)nn(CS(C)(=O)=O)c2C(F)(F)F)cc(N2CCOC[C@H]2C)n1 [Compound D41] | 940 | 570 | 29 | – | – |
| CNc1nc2cc(F)ccc2n1-c1nc(-c2c(C(F)(F)F)nn(CS(C)(=O)=O)c2C)cc(N2CCOC[C@H]2C)n1 [Compound D42] | 2010 | 1730 | 97 | – | – |
| CNc1nc2ccccc2n1-c1nc(-c2c(C)nn(CS(C)(=O)=O)c2C(F)(F)F)cc(N2CCOC[C@H]2C)n1 [Compound D43] | 210 | 540 | 19 | – | – |
| CNc1nc2ccccc2n1-c1nc(-c2c(C(F)(F)F)nn(CS(C)(=O)=O)c2C)cc(N2CCOC[C@H]2C)n1 [Compound D44] | 790 | 680 | 34 | – | – |
| CNc1nc2ccccc2n1-c1nc(-c2c(C(F)(F)F)nn(C3CCCNC3)c2C)cc(N2CCOC[C@H]2C)n1 (some centres unmarked) [Compound D45] | – | – | 10 | 920 | 640 |
| Cc1nn(C2CCNCC2)c(C(F)(F)F)c1-c1cc(N2CCOC[C@H]2C)nc(-n2cnc3ccccc32)n1 [Compound D46] | – | – | 6 | 1330 | 530 |
| Cc1c(-c2cc(N3CCOC[C@H]3C)nc(-c3cc(F)cc4[nH]ccc34)n2)c(C(F)(F)F)nn1C1CCNCC1 [Compound D47] | – | – | 5 | 600 | 550 |
